According to ChEMBL document CHEMBL3991601, “The target landscape of clinical kinase drugs” (Science, 2017):
pKd: −log10 of the molar value. Active and inactive are the calls of the source.

Key:
[1] = target: Tyrosine-protein kinase ABL1 (Homo sapiens, UniProt P00519)
[2] = target: Cyclin-dependent kinase 1 (Homo sapiens, UniProt P06493)
[3] = target: Cyclin-dependent kinase 4 (Homo sapiens, UniProt P11802)
Ephrin type-B receptor 2 = target: T1, Ephrin type-B receptor 2 (Homo sapiens, UniProt P29323)
T1 sequence (P29323 whole entry): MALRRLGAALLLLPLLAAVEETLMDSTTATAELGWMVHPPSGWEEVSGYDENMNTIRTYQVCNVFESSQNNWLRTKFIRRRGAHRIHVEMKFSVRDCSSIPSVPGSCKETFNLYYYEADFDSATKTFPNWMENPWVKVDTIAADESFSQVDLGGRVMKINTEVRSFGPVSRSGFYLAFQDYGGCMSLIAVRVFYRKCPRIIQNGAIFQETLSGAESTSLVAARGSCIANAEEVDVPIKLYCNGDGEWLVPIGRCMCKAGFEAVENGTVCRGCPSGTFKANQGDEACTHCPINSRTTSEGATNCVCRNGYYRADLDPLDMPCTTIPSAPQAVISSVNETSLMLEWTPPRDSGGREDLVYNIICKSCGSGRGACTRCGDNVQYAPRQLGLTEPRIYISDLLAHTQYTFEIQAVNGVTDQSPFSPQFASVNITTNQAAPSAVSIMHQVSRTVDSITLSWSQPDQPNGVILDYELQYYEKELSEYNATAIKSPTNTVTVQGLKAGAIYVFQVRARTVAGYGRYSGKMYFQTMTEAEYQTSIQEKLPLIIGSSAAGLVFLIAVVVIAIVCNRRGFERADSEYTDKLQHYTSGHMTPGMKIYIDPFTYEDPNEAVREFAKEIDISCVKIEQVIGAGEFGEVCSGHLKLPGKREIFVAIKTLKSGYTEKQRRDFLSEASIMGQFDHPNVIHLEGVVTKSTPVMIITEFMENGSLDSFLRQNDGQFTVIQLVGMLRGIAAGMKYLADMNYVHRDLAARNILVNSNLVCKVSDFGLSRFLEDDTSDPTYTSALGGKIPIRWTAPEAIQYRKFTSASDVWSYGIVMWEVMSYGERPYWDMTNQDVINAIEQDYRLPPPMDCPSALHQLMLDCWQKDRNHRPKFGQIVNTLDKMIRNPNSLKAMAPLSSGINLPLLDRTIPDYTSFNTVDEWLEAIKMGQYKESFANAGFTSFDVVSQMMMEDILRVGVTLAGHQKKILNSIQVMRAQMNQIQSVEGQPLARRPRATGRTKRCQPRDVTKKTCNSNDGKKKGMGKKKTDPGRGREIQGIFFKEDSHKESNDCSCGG

[4] = target: Fibroblast growth factor receptor 1 (Homo sapiens, UniProt P11362)
[5] = target: T2, Dual specificity mitogen-activated protein kinase kinase 3 (Homo sapiens, UniProt P46734)
T2 sequence (P46734 whole entry): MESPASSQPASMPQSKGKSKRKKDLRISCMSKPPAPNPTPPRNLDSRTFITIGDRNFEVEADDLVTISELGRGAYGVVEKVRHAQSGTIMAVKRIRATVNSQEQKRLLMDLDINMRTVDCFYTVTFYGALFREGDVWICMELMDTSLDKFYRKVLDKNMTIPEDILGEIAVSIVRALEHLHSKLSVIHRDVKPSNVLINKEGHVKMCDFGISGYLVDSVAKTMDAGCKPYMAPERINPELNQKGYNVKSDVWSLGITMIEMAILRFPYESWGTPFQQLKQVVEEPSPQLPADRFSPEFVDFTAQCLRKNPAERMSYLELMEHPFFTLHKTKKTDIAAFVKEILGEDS

[6] = target: Mitogen-activated protein kinase 11 (Homo sapiens, UniProt Q15759)
[7] = target: cAMP-dependent protein kinase catalytic subunit alpha (Homo sapiens, UniProt P17612)
[8] = target: T3, cGMP-dependent protein kinase 1 (Homo sapiens, UniProt Q13976)
T3 sequence (Q13976 whole entry): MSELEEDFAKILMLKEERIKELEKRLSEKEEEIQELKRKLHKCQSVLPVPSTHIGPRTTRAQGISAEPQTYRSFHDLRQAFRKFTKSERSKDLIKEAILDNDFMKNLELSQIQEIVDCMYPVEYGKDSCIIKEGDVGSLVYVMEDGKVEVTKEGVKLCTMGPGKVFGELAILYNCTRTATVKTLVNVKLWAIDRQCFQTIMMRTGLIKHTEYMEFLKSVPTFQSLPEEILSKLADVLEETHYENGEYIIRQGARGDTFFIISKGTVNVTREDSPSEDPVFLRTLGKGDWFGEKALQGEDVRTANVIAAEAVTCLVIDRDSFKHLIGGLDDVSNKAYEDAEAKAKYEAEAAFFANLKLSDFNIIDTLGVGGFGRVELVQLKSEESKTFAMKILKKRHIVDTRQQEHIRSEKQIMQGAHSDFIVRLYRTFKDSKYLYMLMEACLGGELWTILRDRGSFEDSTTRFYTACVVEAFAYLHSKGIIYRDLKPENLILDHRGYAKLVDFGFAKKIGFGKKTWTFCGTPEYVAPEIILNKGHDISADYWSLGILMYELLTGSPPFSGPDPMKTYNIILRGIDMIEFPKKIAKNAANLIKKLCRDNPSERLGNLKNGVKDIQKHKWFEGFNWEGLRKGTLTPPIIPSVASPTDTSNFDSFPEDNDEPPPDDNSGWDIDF

Focal adhesion kinase 1 = Focal adhesion kinase 1 (Homo sapiens, UniProt Q05397)
[9] = target: U5 small nuclear ribonucleoprotein 200 kDa helicase (Homo sapiens, UniProt O75643)
[10] = target: T4, Serine/threonine-protein kinase STK11 (Homo sapiens, UniProt Q15831)
T4 sequence (Q15831 whole entry): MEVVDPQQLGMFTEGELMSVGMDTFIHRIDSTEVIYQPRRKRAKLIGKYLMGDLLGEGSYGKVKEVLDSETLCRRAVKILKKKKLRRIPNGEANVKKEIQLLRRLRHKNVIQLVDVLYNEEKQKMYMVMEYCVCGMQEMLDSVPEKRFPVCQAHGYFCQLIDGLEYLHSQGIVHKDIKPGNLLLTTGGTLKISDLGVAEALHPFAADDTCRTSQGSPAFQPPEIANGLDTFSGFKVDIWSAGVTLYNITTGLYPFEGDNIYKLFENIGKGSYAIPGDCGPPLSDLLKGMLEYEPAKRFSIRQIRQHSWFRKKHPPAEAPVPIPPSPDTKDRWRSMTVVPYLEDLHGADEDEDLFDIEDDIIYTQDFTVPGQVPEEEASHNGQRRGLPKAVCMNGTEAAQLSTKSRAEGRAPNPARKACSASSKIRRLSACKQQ
Further: in the data inactive means no Kd found up to 30 µM.

Chain of Mitogen-activated protein kinase 11 (Q15759 whole entry): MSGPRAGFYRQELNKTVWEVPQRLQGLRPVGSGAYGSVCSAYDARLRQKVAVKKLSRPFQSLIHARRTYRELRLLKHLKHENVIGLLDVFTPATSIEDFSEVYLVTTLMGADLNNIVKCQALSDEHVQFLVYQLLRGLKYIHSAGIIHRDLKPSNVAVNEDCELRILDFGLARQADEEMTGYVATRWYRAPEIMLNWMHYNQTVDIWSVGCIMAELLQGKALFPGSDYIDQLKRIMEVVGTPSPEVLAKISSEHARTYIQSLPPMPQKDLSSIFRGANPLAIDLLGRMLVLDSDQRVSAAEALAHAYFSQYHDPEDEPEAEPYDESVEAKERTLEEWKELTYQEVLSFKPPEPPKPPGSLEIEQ
Chain of Tyrosine-protein kinase ABL1 (P00519 whole entry): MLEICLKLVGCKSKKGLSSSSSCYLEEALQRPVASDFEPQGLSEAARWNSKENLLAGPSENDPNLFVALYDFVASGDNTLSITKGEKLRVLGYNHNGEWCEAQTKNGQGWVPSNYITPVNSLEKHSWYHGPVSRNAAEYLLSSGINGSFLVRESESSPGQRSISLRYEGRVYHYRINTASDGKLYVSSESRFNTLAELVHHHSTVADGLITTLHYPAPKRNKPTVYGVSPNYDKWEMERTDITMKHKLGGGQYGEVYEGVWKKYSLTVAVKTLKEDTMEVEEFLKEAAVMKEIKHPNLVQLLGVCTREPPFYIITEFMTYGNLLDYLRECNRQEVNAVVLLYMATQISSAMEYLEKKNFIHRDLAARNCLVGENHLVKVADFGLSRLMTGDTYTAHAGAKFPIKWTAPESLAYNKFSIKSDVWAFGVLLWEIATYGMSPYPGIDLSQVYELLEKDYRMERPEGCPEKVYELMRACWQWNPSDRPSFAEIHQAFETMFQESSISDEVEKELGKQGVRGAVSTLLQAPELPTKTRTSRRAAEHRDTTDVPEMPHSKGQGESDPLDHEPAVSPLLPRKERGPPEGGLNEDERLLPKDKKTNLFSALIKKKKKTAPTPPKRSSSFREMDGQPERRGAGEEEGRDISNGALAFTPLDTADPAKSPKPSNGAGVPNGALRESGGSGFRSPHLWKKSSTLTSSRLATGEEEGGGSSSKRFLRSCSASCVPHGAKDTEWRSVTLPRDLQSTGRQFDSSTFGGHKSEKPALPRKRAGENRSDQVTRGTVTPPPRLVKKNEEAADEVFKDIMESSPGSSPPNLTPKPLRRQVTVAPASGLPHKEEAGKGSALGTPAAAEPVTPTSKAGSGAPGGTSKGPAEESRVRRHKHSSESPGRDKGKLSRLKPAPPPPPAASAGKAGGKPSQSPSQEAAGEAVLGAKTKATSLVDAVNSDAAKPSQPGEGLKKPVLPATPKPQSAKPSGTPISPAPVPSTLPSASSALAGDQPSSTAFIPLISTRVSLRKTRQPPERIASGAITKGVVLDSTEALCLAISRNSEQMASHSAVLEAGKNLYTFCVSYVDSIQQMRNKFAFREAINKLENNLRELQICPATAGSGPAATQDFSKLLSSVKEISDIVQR
Chain of Fibroblast growth factor receptor 1 (P11362 whole entry): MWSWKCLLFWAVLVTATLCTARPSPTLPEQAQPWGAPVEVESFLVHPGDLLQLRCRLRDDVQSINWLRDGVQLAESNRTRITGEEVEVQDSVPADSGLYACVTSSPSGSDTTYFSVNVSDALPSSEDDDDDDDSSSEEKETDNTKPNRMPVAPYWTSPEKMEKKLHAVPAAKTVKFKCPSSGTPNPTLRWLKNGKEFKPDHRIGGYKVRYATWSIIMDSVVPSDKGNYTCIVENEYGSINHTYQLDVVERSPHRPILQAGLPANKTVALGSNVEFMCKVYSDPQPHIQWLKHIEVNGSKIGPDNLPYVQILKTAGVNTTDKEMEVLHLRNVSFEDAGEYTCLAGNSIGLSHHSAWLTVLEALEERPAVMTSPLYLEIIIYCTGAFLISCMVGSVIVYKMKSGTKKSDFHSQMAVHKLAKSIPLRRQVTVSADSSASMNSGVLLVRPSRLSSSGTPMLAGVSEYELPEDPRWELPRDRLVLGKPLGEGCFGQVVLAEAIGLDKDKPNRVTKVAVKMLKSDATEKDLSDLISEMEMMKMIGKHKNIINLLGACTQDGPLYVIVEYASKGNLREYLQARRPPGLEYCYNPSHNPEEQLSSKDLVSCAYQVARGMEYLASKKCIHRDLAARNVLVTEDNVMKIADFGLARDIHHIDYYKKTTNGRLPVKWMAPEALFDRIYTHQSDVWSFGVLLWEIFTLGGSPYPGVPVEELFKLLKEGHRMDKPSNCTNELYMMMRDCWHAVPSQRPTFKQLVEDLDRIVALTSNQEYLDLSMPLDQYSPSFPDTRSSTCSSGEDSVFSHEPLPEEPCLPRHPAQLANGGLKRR
Chain of Cyclin-dependent kinase 1 (P06493 whole entry): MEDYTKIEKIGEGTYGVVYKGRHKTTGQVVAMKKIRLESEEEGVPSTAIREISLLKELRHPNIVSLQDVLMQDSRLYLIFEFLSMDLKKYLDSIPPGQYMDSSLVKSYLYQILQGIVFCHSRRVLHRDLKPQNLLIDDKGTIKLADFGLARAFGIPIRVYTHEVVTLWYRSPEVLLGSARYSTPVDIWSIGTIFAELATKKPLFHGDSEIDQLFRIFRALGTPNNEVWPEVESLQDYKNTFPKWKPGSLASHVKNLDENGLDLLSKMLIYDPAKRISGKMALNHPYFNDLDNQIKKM
Chain of Focal adhesion kinase 1 (Q05397 whole entry): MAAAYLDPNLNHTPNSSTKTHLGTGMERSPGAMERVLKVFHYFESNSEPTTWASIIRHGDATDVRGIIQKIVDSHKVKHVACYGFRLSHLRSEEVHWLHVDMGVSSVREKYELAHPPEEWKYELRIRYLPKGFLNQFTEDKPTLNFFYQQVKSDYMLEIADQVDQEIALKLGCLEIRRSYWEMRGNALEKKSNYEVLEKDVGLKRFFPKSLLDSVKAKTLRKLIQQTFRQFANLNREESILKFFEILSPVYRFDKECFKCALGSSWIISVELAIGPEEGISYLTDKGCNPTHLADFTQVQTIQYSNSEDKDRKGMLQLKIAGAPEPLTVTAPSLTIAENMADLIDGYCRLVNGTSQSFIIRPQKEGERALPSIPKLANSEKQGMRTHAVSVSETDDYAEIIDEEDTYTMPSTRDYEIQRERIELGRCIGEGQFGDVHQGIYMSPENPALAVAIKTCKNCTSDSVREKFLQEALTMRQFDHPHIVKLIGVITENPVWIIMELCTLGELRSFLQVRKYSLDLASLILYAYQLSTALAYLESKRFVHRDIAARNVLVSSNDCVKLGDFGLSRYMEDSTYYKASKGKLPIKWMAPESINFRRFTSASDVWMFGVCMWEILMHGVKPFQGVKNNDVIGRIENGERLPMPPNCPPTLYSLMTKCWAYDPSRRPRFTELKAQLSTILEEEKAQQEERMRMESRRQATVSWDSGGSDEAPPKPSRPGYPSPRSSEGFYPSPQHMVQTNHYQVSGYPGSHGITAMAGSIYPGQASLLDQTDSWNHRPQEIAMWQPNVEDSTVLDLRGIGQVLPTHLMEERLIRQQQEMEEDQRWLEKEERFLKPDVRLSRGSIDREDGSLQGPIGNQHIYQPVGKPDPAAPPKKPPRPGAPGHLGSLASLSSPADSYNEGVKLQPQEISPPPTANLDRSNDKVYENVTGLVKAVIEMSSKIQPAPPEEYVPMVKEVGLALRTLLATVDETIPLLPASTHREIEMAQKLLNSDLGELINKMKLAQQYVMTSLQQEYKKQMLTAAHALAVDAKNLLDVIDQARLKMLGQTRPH
Chain of Cyclin-dependent kinase 4 (P11802 whole entry): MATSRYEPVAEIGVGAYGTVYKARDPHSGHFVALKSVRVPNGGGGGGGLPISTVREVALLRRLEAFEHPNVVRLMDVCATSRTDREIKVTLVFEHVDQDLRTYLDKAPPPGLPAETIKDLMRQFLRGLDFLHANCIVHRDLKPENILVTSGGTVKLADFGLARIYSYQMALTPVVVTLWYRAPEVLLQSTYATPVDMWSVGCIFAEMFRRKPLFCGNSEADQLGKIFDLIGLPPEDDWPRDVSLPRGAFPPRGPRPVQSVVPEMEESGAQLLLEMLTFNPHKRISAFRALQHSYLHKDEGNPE

Cn1cc(-c2cnc3ccc4ccc(CS(=O)(=O)NCc5ccccn5)cc4c(=O)c3c2)cn1 [MK-8033]
Kd [1]: > 30 µM (inactive) | Kd [2]: > 30 µM (inactive) | Kd [3]: > 30 µM (inactive) | Kd (Ephrin type-B receptor 2): > 30 µM (inactive) | Kd [4]: > 30 µM (inactive) | Kd [5]: > 30 µM (inactive) | Kd [6]: > 30 µM (inactive) | Kd [7]: > 30 µM (inactive) | Kd [8]: > 30 µM (inactive) | Kd (Focal adhesion kinase 1): > 30 µM (inactive) | Kd [9]: > 30 µM (inactive) | Kd [10]: > 30 µM (inactive)

CN(C[C@@H]1COCCO1)S(=O)(=O)Nc1ccc2ccc3ncc(-c4cnn(C)c4)cc3c(=O)c2c1 [MK-2461]
Kd [1]: > 30 µM (inactive) | Kd [2]: > 30 µM (inactive) | Kd [3]: > 30 µM (inactive) | Kd (Ephrin type-B receptor 2): > 30 µM (inactive) | Kd [4]: > 30 µM (inactive) | Kd [5]: > 30 µM (inactive) | Kd [6]: > 30 µM (inactive) | Kd [7]: > 30 µM (inactive) | Kd [8]: > 30 µM (inactive) | Kd (Focal adhesion kinase 1): > 30 µM (inactive) | Kd [9]: > 30 µM (inactive) | Kd [10]: > 30 µM (inactive)

CN1C/C=C/CCOc2cccc(c2)-c2ccnc(n2)Nc2cccc(c2)C1 [ZOTIRACICLIB]
pKd [1]: 4.49 | Kd [2]: > 30 µM (inactive) | Kd [3]: > 30 µM (inactive) | Kd (Ephrin type-B receptor 2): > 30 µM (inactive) | Kd [4]: > 30 µM (inactive) | Kd [5]: > 30 µM (inactive) | Kd [6]: > 30 µM (inactive) | Kd [7]: > 30 µM (inactive) | Kd [8]: > 30 µM (inactive) | Kd (Focal adhesion kinase 1): > 30 µM (inactive) | Kd [9]: > 30 µM (inactive) | Kd [10]: > 30 µM (inactive)

Cc1cc(Nc2ncc(Cl)c(Nc3ccccc3S(=O)(=O)C(C)C)n2)c(OC(C)C)cc1C1CCNCC1 [CERITINIB]
Kd [1]: > 30 µM (inactive) | Kd [2]: > 30 µM (inactive) | Kd [3]: > 30 µM (inactive) | Kd (Ephrin type-B receptor 2): > 30 µM (inactive) | Kd [4]: > 30 µM (inactive) | Kd [5]: > 30 µM (inactive) | Kd [6]: > 30 µM (inactive) | Kd [7]: > 30 µM (inactive) | Kd [8]: > 30 µM (inactive) | Kd [9]: > 30 µM (inactive) | Kd [10]: > 30 µM (inactive)

Cc1nc2cc(-n3ncc(C(=O)c4cc5ccccc5[nH]4)c3N)ccc2[nH]1 [FGFR INHIBITOR DEBIO 1347]
Kd [1]: > 30 µM (inactive) | Kd [2]: > 30 µM (inactive) | Kd [3]: > 30 µM (inactive) | Kd (Ephrin type-B receptor 2): > 30 µM (inactive) | Kd [5]: > 30 µM (inactive) | Kd [6]: > 30 µM (inactive) | Kd [7]: > 30 µM (inactive) | Kd [8]: > 30 µM (inactive) | Kd (Focal adhesion kinase 1): > 30 µM (inactive) | Kd [9]: > 30 µM (inactive) | Kd [10]: > 30 µM (inactive)

O=C(Nc1cc(C(F)(F)F)cc(C(F)(F)F)c1)c1cc(Cl)ccc1O [IMD-0354]
Kd [1]: > 30 µM (inactive) | Kd [3]: > 30 µM (inactive) | Kd (Ephrin type-B receptor 2): > 30 µM (inactive) | Kd [4]: > 30 µM (inactive) | Kd [5]: > 30 µM (inactive) | Kd [6]: > 30 µM (inactive) | Kd [7]: > 30 µM (inactive) | Kd [8]: > 30 µM (inactive) | Kd (Focal adhesion kinase 1): > 30 µM (inactive) | Kd [9]: > 30 µM (inactive) | Kd [10]: > 30 µM (inactive)

Cc1cc(C(=O)NOCCO)c(Nc2ccc(I)cc2F)n(C)c1=O [AZD-8330]
Kd [1]: > 30 µM (inactive) | Kd [2]: > 30 µM (inactive) | Kd [3]: > 30 µM (inactive) | Kd (Ephrin type-B receptor 2): > 30 µM (inactive) | Kd [4]: > 30 µM (inactive) | Kd [5]: > 30 µM (inactive) | Kd [7]: > 30 µM (inactive) | Kd [8]: > 30 µM (inactive) | Kd (Focal adhesion kinase 1): > 30 µM (inactive) | Kd [9]: > 30 µM (inactive) | Kd [10]: > 30 µM (inactive)

Cc1nc2cc(-c3nn(C(C)C)c4ncnc(N)c34)ccc2o1
Kd [1]: > 30 µM (inactive) | Kd [2]: > 30 µM (inactive) | Kd [3]: > 30 µM (inactive) | Kd (Ephrin type-B receptor 2): > 30 µM (inactive) | Kd [5]: > 30 µM (inactive) | Kd [6]: > 30 µM (inactive) | Kd [7]: > 30 µM (inactive) | Kd [8]: > 30 µM (inactive) | Kd (Focal adhesion kinase 1): > 30 µM (inactive) | Kd [9]: > 30 µM (inactive) | Kd [10]: > 30 µM (inactive)

Cc1nc(NC(=O)N2CCC[C@H]2C(N)=O)sc1-c1ccnc(C(C)(C)C(F)(F)F)c1 [ALPELISIB]
Kd [1]: > 30 µM (inactive) | Kd [2]: > 30 µM (inactive) | Kd [3]: > 30 µM (inactive) | Kd (Ephrin type-B receptor 2): > 30 µM (inactive) | Kd [4]: > 30 µM (inactive) | Kd [5]: > 30 µM (inactive) | Kd [7]: > 30 µM (inactive) | Kd [8]: > 30 µM (inactive) | Kd (Focal adhesion kinase 1): > 30 µM (inactive) | Kd [9]: > 30 µM (inactive) | Kd [10]: > 30 µM (inactive)

C[C@@H](Oc1cc(C(=O)Nc2ccc(C(=O)N3CCN(C)CC3)cc2)nnc1N)c1c(Cl)ccc(F)c1Cl
Kd [1]: > 30 µM (inactive) | Kd [2]: > 30 µM (inactive) | Kd [3]: > 30 µM (inactive) | Kd (Ephrin type-B receptor 2): > 30 µM (inactive) | Kd [4]: > 30 µM (inactive) | Kd [5]: > 30 µM (inactive) | Kd [6]: > 30 µM (inactive) | Kd [7]: > 30 µM (inactive) | Kd [8]: > 30 µM (inactive) | Kd (Focal adhesion kinase 1): > 30 µM (inactive) | Kd [9]: > 30 µM (inactive)

Cc1csc(-c2nnc(Nc3ccc(Oc4ncccc4-c4ccnc(N)n4)cc3)c3ccccc23)c1 [AMG-900]
Kd [1]: 1.9 µM (active) | Kd [2]: > 30 µM (inactive) | Kd [3]: > 30 µM (inactive) | Kd (Ephrin type-B receptor 2): > 30 µM (inactive) | Kd [4]: > 30 µM (inactive) | Kd [5]: > 30 µM (inactive) | Kd [6]: > 30 µM (inactive) | Kd [7]: > 30 µM (inactive) | Kd [8]: > 30 µM (inactive) | Kd (Focal adhesion kinase 1): > 30 µM (inactive) | Kd [9]: > 30 µM (inactive)

FC(F)(F)c1ccc(/C=C/c2nc(COc3ccc(CCCCn4ccnn4)cc3)co2)cc1 [MUBRITINIB]
Kd [1]: > 30 µM (inactive) | Kd [2]: > 30 µM (inactive) | Kd (Ephrin type-B receptor 2): > 30 µM (inactive) | Kd [4]: > 30 µM (inactive) | Kd [5]: > 30 µM (inactive) | Kd [6]: > 30 µM (inactive) | Kd [7]: > 30 µM (inactive) | Kd [8]: > 30 µM (inactive) | Kd (Focal adhesion kinase 1): > 30 µM (inactive) | Kd [9]: > 30 µM (inactive) | Kd [10]: > 30 µM (inactive)
